Data as given in PMC3098941 (ACS chemical biology, 2011).

Legend:
Type in all cases: binding
Aurora A = biological target: T1, Aurora A (Homo sapiens, UniProt O14965); assay: ANS fluorescence titration of Aurora A; details: read-out: apparent Kd of ANS for Aurora A; Aurora A 5.8 μM, slit widths 10/10
T1 sequence (O14965 123-380): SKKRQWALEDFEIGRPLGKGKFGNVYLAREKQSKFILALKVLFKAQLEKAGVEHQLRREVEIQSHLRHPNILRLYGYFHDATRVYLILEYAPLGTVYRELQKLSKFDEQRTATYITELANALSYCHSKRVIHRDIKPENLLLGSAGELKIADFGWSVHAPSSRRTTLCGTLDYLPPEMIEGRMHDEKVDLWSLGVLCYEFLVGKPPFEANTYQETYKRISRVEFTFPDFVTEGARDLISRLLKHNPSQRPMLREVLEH

Akt1 = Akt1 (Homo sapiens, UniProt P31749); assay: ANS fluorescence titration of Akt; details: up to 100 μM ANS
Akt1, sequence (P31749 whole entry): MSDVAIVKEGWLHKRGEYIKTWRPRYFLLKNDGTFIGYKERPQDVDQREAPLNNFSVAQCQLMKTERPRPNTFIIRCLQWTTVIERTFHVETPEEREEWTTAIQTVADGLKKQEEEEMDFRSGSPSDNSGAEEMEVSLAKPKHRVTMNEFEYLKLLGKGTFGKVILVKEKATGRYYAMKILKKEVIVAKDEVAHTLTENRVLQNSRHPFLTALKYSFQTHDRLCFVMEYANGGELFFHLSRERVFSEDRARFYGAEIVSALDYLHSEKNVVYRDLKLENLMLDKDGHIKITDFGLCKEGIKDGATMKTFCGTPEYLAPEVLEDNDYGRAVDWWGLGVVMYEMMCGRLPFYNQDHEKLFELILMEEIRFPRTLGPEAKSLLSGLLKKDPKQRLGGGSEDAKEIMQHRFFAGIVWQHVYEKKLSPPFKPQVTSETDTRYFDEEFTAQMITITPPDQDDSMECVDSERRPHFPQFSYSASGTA

Rock1 = Rock1 (Homo sapiens, UniProt Q13464); assay: ANS fluorescence titration of Rock 1; details: up to 100 μM ANS
Rock1, sequence (Q13464 5-415): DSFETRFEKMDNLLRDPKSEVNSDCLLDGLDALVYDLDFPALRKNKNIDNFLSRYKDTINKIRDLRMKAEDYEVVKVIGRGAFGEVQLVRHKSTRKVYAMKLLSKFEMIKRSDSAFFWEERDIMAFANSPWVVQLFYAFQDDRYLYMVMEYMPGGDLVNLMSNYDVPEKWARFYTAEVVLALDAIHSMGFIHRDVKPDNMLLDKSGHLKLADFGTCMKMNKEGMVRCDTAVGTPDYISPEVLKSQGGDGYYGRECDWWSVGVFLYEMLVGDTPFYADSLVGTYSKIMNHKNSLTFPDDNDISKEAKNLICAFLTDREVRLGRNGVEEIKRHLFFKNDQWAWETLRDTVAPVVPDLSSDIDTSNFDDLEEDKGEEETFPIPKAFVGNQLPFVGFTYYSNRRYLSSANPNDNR

CDK2-ANS complex = CDK2-ANS complex (Homo sapiens, UniProt P24941); assay: Quenching of CDK2-ANS fluorescence by ligands; details: 50 μM ANS; for effect on CDK2-ANS fluorescence yield: concentrations as high as 300 μM, 1.6 μM CDK2

Compound: O=S(=O)(O)c1cccc2cccc(Nc3ccccc3)c12 [ANS, 8-anilino-1-naphthalene sulfonate]
- Kd (Aurora A): 54 µM
- saturation of ANS fluorescence with Akt (Akt1): saturation was not reached
- saturation of ANS fluorescence with Rock 1 (Rock1): saturation was not reached

Compound: COc1ccc(O)c(-c2nc(N)nc(N)n2)c1 [JWS648]
- effect on CDK2-ANS fluorescence yield (CDK2-ANS complex): only marginally affected

Compound: Nc1ncnc2c1ncn2[C@@H]1O[C@H](COP(=O)(O)OP(=O)(O)OP(=O)(O)O)[C@@H](O)[C@H]1O [ATP]
- effect on CDK2-ANS fluorescence yield (CDK2-ANS complex): only marginally affected
- effect on CDK2-ANS fluorescence (CDK2-ANS complex; concentrations up to 100 μM): did not appear to affect
